# Test results reported in paper PMC3131588, “Effects of Onion (Allium cepa L.) Extract Administration on Intestinal α-Glucosidases Activities and Spikes in Postprandial Blood Glucose Levels in SD Rats Model” (International Journal of Molecular Sciences, 2011).
# What was measured:
# rat intestinal maltase = target: T1, rat intestinal maltase; experiment: maltose hydrolysis, liberated glucose by glucose oxidase method; type: biochemical; details: maltose 0.4 mg/mL, 0.1 M phosphate pH 7.0, 37 °C, 30 min; crude rat intestinal enzyme; quercetin bought as dihydrate
# T1 construct: gene Mgam; native enzymes in crude supernatant of rat intestinal acetone powder (Sigma-Aldrich); maltase activity not resolved to one gene product
# From the text: maltose hydrolysis, liberated glucose by glucose oxidase method on rat intestinal maltase
# [1] = target: T2, rat intestinal α-glucosidase; experiment: p-nitrophenyl-α-D-glucopyranoside hydrolysis, absorbance at […] nm; type: biochemical; details: 5 mM p-nitrophenyl-α-D-glucopyranoside stock (50 μL), 0.1 M phosphate pH 6.9, 25 °C; crude rat intestinal enzyme; quercetin bought as dihydrate
# T2 construct: gene Mgam; native enzymes in crude supernatant of rat intestinal acetone powder (Sigma-Aldrich), EC 3.2.1.20; not resolved to one gene product
smiles,measurement,setting,value
"O=c1c(O)c(-c2ccc(O)c(O)c2)oc2cc(O)cc(O)c12 [quercetin, 3,3′,4′,5,7-Pentahydroxyflavone dihydrate]",IC50,rat intestinal maltase,70 µg/mL
same,IC50,[1],150 µg/mL
